This experiment concerns the target PI3Kβ (Homo sapiens (Human), UniProt P42338). Description: PI3K isoform TR-FRET enzymatic assay (PI3Kβ). The following applies: 2× Km ATP, 30 minutes at 25° C. In kind it is biochemical. As for the experimental part:
The compounds of formula (I) were characterized for their enzymatic activity against the PI3K isoforms. The activities were measured using a time-resolved fluorescence resonance energy transfer (TR-FRET) assay. TR-FRET monitored the formation of 3,4,5-inositol triphosphate molecule that competed with fluorescently labeled PIP3 for binding to the GRP-1 pleckstrin homology domain protein.
Class I PI3K isoforms were expressed and purified as heterodimeric recombinant proteins. All assay reagents and buffers for the TR-FRET assay were purchased from Millipore. […] The compounds were added to the assay solution and incubated for 30 minutes at 25° C. The reactions were terminated with a final concentration of 10 mM EDTA, 10 nM labeled-PIP3, and 35 nM Europium labeled GRP-1 detector protein before reading TR-FRET on an Envision plate reader (Ex: 340 nm; Em: 615/665 nm; 100 μs delay and 500 μs read window).
The results were normalized based on positive (1 μM wortmanin) and negative (DMSO) controls, and the IC50 values for PI3K α, β, δ, and γ were calculated from the fit of the dose-response curves to a four-parameter equation.

Chain of PI3Kβ (P42338 whole entry, the tested form may be a part, canonical isoform): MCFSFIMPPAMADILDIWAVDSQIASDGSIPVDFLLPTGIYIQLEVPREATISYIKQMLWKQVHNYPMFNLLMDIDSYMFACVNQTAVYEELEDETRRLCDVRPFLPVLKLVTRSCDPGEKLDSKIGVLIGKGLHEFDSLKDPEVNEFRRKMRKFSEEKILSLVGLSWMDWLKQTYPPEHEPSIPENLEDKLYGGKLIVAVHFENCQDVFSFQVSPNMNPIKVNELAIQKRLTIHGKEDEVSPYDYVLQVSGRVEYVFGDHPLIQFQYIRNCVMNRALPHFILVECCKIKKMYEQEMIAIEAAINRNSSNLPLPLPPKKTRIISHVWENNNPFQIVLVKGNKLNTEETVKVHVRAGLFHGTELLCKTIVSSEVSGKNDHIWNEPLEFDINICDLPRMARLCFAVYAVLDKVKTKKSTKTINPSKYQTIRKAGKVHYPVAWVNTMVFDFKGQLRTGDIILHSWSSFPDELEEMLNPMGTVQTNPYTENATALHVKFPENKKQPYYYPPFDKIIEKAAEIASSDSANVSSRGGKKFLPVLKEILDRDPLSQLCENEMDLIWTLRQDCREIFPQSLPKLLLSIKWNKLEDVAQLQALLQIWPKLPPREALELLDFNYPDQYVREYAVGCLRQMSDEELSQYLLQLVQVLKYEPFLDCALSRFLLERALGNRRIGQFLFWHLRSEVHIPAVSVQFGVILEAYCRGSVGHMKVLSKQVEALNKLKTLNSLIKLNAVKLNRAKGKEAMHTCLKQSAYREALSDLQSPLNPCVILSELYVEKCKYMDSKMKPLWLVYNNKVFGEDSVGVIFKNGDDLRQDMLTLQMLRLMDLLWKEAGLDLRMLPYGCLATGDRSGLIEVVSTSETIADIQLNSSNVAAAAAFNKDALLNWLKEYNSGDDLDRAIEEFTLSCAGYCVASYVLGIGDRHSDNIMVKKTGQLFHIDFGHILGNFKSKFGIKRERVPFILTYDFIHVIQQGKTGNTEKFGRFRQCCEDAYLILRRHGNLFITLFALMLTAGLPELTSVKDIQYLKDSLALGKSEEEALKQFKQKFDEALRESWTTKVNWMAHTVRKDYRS
Chain of PI3Kβ (P27986 whole entry partner, the tested form may be a part, canonical isoform): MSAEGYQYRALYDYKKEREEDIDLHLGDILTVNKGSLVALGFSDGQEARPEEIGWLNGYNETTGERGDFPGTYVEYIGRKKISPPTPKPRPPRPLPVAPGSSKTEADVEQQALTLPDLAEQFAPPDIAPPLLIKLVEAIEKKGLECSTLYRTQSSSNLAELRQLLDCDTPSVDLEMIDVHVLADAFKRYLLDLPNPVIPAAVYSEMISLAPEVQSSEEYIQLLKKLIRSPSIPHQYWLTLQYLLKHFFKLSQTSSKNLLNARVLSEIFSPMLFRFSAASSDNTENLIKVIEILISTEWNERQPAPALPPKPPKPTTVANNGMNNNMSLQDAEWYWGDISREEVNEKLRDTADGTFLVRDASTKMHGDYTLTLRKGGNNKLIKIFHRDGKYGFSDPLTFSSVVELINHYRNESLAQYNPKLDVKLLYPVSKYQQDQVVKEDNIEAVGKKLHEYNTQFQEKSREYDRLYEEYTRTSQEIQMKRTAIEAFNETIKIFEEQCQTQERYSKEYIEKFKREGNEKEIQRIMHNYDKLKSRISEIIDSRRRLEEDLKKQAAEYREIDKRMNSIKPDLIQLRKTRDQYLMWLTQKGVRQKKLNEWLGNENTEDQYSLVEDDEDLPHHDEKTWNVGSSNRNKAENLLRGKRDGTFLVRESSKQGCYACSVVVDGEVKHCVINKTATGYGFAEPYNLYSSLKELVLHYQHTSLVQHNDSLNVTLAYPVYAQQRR

Usually IC50 stands for the concentration at which inhibition is half-maximal. A high value points to a need for much substance. In the case of `CCCc1nc2c(-c3nnc(C)[nH]3)cc(N3CCOCC3)cc2n1-c1ccnc2c(F)ccc(F)c12` [Example 3, 4-(1-(5,8-difluoroquinolin-4-yl)-4-(5-methyl-4H-1,2,4-triazol-3-yl)-2-propyl-1H-benzo[d]imidazol-6-yl)morpholine], half-maximal inhibition (IC50) was put at 24 nM.

As for `Cc1nc2c(-c3nnc[nH]3)cc(N3CCOCC3)cc2n1-c1ccnc2c(F)c(F)ccc12` (atropisomer, axis not shown) [Compound 353, 4-[3-(7,8-difluoroquinolin-4-yl)-2-methyl-7-(4H-1,2,4-triazol-3-yl)benzimidazol-5-yl]morpholine], the IC50 turned out to be 270 nM.

`Cc1nc2c(-c3nnc[nH]3)cc(N3CCOCC3)cc2n1-c1ccnc2c(F)c(F)ccc12` [Example 142, 4-[3-(7,8-difluoroquinolin-4-yl)-2-methyl-7-(4H-1,2,4-triazol-3-yl)benzimidazol-5-yl]morpholine] had an IC50 of 15 nM.

Regarding `Clc1cccc2c(-n3c(C4CNC4)nc4c(-c5nnc[nH]5)cc(N5CCOCC5)cc43)ccnc12` [Example 132, 4-[2-(azetidin-3-yl)-3-(8-chloroquinolin-4-yl)-7-(4H-1,2,4-triazol-3-yl)benzimidazol-5-yl]morpholine], the IC50 came out at 380 nM.

In the case of `Cc1nc2c(-c3cnn[nH]3)cc(N3CCOCC3)cc2n1-c1ccnc2c(F)ccc(F)c12` [Example 377, 4-(1-(5,8-difluoroquinolin-4-yl)-2-methyl-4-(1H-1,2,3-triazol-5-yl)-1H-benzo[d]imidazol-6-yl)morpholine], the IC50 amounted to 35 nM.

The compound `Cc1cc(-n2c(C)nc3c(-c4nnc[nH]4)cc(N4CCOCC4)cc32)c2ccccc2n1` [Example 69, 4-[2-methyl-3-(2-methylquinolin-4-yl)-7-(4H-1,2,4-triazol-3-yl)benzimidazol-5-yl]morpholine] returned a 50% inhibitory concentration (IC50) of 17 nM.

For the compound `CCCc1nc2c(-c3nc(C)cs3)cc(N3CCOCC3)cc2n1-c1ccnc2c(F)ccc(F)c12` [Example 235, 4-[3-(5,8-difluoroquinolin-4-yl)-7-(4-methyl-1,3-thiazol-2-yl)-2-propylbenzimidazol-5-yl]morpholine], half-maximal inhibition (IC50) was put at 17 nM.

`Cc1nc2c(-c3nnc[nH]3)c(F)c(N3CCOCC3)cc2n1-c1ccnc2c(Cl)cccc12` [Example 86, 4-[3-(8-chloroquinolin-4-yl)-6-fluoro-2-methyl-7-(4H-1,2,4-triazol-3-yl)benzimidazol-5-yl]morpholine]: inhibition was half-maximal at 16 nM (IC50).

In turn, `c1ccc2c(-n3cnc4c(-c5nnc[nH]5)cc(N5CCOCC5)cc43)cc(N3CCNCC3)nc2c1` [Example 379, 4-(1-(2-(piperazin-1-yl)quinolin-4-yl)-4-(4H-1,2,4-triazol-3-yl)-1H-benzo[d]imidazol-6-yl)morpholine] registered an IC50 of 8 nM.

In turn, `CCCc1nc2c(-c3nnc(C)[nH]3)cc(N3CCOCC3)cc2n1-c1ccnc2c(C)ccc(F)c12` [Example 43, 4-(1-(5-fluoro-8-methylquinolin-4-yl)-4-(5-methyl-4H-1,2,4-triazol-3-yl)-2-propyl-1H-benzo[d]imidazol-6-yl)morpholine] registered an IC50 of 20 nM.

With `Cc1nc2c(-c3cnc(Cl)[nH]3)cc(N3CCOCC3)cc2n1-c1ccnc2c(F)ccc(F)c12` (atropisomer, axis not shown) [Compound 372, 4-(4-(2-chloro-1H-imidazol-5-yl)-1-(5,8-difluoroquinolin-4-yl)-2-methyl-1H-benzo[d]imidazol-6-yl)morpholine], inhibition was half-maximal at 6 nM (IC50).

For `Fc1cccc2c(-n3cnc4c(-c5cnc(Cl)[nH]5)cc(N5CCOCC5)cc43)ccnc12` [Example 292, 4-[7-(2-chloro-1H-imidazol-5-yl)-3-(8-fluoroquinolin-4-yl)benzimidazol-5-yl]morpholine], the concentration for half-maximal inhibition (IC50) was 42 nM.

In turn, `CCc1nc2c(-c3c[nH]cn3)cc(N3CCOCC3)cc2n1-c1ccnc2c(Cl)cccc12` [Example 331, 4-[3-(8-chloroquinolin-4-yl)-2-ethyl-7-(1H-imidazol-4-yl)benzimidazol-5-yl]morpholine] came in with an IC50 of 7 nM.

Compound `Cc1nc2c(-c3cc[nH]c3)cc(N3CCOCC3)cc2n1-c1ccnc2c(Cl)cccc12` [Example 263, 4-[3-(8-chloroquinolin-4-yl)-2-methyl-7-(1H-pyrrol-3-yl)benzimidazol-5-yl]morpholine] yielded an IC50 of 13 nM.

With `CCCc1nc2c(-c3ncco3)cc(N3CCOCC3)cc2n1-c1ccnc2c(F)cccc12` [Example 223, 4-[3-(8-fluoroquinolin4-yl)-7-(1,3-oxazol-2-yl)-2-propylbenzimidazol-5-yl]morpholine], 9 nM corresponded to half-maximal inhibition (IC50).

With `Cc1ncc(-c2cc(N3CCOCC3)cc3c2nc(C)n3-c2ccnc3c(Cl)cccc23)s1` [Example 297, 4-[3-(8-chloroquinolin-4-yl)-2-methyl-7-(2-methyl-1,3-thiazol-5-yl)benzimidazol-5-yl]morpholine], the IC50 came out at 3800 nM.

`Cc1nc2c(-c3nnc[nH]3)cc(N3CCOCC3)cc2n1-c1ccnc2ccccc12` [Example 106, 4-[2-methyl-3-quinolin-4-yl-7-(4H-1,2,4-triazol-3-yl)benzimidazol-5-yl]morpholine] gave an IC50 of 17 nM.

`Cc1nc2c(-c3nnc[nH]3)cc(N3CCOCC3)cc2n1-c1cc(-c2cscn2)nc2ccccc12` [Example 103, 4-(2-methyl-1-(2-(thiazol-4-yl)quinolin-4-yl)-4-(4H-1,2,4-triazol-3-yl)-1H-benzo[d]imidazol-6-yl)morpholine] had an IC50 of 9 nM.

`Cc1nc2c(-c3ncco3)cc(N3CCOCC3)cc2n1-c1ccnc2c(F)ccc(F)c12` [Example 229, 4-[3-(5,8-difluoroquinolin-4-yl)-2-methyl-7-(1,3-oxazol-2-yl)benzimidazol-5-yl]morpholine] displayed an IC50 of 5 nM.

As to `CCCc1nc2c(-c3ncco3)cc(N3CCOCC3)cc2n1-c1ccnc2c(F)ccc(F)c12` [Example 230, 4-(1-(5,8-difluoroquinolin-4-yl)-4-(oxazol-2-yl)-2-propyl-1H-benzo[d]imidazol-6-yl)morpholine], the IC50 was 7 nM.

Turning to `Clc1cccc2c(-n3c(C4CCCO4)nc4c(-c5ccccc5)cc(N5CCOCC5)cc43)ccnc12` (stereo not shown) [Example 198], the IC50 was determined as 120 nM.

For `Cc1cnc2c(C#N)cccc2c1-n1c(C)nc2c(-c3nnc[nH]3)cc(N3CCOCC3)cc21` [Example 156, 3-methyl-4-(2-methyl-6-morpholino-4-(4H-1,2,4-triazol-3-yl)-1H-benzo[d]imidazol-1-yl)quinoline-8-carbonitrile], the IC50 was found to be 20 nM.

Consider `Clc1cccc2c(-n3c(CC4CC4)nc4c(-c5nnc[nH]5)cc(N5CCOCC5)cc43)ccnc12` [Example 32, 4-(1-(8-chloroquinolin-4-yl)-2-(cyclopropylmethyl)-4-(4H-1,2,4-triazol-3-yl)-1H-benzo[d]imidazol-6-yl)morpholine], for which the IC50 was determined as 9 nM.

For `CCCc1nc2c(-c3nnc(Cl)[nH]3)cc(N3CCOCC3)cc2n1-c1ccnc2c(F)ccc(F)c12` [Example 182, 4-[7-(5-chloro-4H-1,2,4-triazol-3-yl)-3-(5,8-difluoroquinolin-4-yl)-2-propylbenzimidazol-5-yl]morpholine], the IC50 came to 34 nM.

For the compound `Cc1c(C2CC2)nc2ccccc2c1-n1c(C)nc2c(-c3nnc[nH]3)cc(N3CCOCC3)cc21` [Example 56, 4-[3-(2-cyclopropyl-3-methylquinolin-4-yl)-2-methyl-7-(4H-1,2,4-triazol-3-yl)benzimidazol-5-yl]morpholine], the IC50 amounted to 72 nM.

The values above are taken from patent US10214519B2, “Phosphatidylinositol 3-kinase inhibitors” (Gilead Sciences, Inc., priority 2016, dated 2019).
